Assay results taken from PMC8518537, “N‐(Anilinoethyl)amide Melatonergic Ligands with Improved Water Solubility and Metabolic Stability” (Chemmedchem, 2021).
In brackets after ≈: the same amount, converted by molar mass. Where two headings read alike, the source gives them in different places.

Columns and labels:
[1] = Experimental lipophilicity, shake-flask n-octanol/water; assay type: physicochemical; conditions: n-octanol/water (MOPS buffer); n-octanol/50 mM MOPS buffer pH 7.4, 25±1 °C; mean±SD of three; read-out: Log D oct,7.4
Method: Chosen buffer was 50 mM zwitterionic MOPS (3‐morpholinopropanesulfonic acid), pH 7.4 to avoid ionic couple partitioning, with ionic strength adjusted to 0.15 M by KCl addition. Compounds, after partitioning overnight, and dilution of both phases with methanol, were dosed in the HPLC‐UV system, as detailed below. Reported log D oct,7.4 values are the mean of three measurements±standard deviation.
HPLC columns were a RP‐C18 Supelco Discovery (Supelco, Bellefonte, PA, USA), 5 μm, 150×4.6 mm i.d. for all compounds except 13, and a Phenomenex Gemini, 5 μm, 150×4.6 mm i.d. for compound 13 (Phenomenex). Elution conditions were optimized for each compound at a flow rate of 1 mL min^−1 employing mobile phases consisting of water and acetonitrile at different percentages, while UV detection was set at λ = 254 nm. For compound 13, the mobile phase consisted of a 10 mM ammonium acetate buffer pH 7.0 and methanol and the UV detection was set at λ = 281 nm.

[2] = target: T1, human MT2 receptors (Homo sapiens, UniProt P49286); assay: Radioligand binding, 2-[125I]iodomelatonin competition at MT2; conditions: cloned human MT2 in CHO cells; from IC50 by Cheng-Prusoff; mean±SD of three determinations; read-out: MT2 K i
T1 sequence (P49286 1-362): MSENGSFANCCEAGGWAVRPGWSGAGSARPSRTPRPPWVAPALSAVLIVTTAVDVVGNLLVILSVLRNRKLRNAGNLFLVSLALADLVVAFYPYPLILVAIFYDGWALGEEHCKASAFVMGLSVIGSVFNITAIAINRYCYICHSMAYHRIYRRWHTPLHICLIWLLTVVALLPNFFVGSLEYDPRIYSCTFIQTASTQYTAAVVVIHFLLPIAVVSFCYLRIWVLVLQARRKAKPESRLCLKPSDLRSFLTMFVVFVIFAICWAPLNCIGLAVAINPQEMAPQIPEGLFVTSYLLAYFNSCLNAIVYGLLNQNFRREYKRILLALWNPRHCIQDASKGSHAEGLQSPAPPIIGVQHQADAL
Method: (§1) The in vitro pharmacology experiments were conducted at Cerep (Celle‐Lévescault, France) following radioligand binding and cellular functional assays developed elsewhere.[60, 61, 62]
(§2) After incubation, the % of radioligand binding inhibition was determined via a scintillation counting method. The radioligand binding experiments were performed in triplicate. IC50 values were determined by nonlinear regression analysis of the competition curves using Hill equation curve fitting. The pK i values were calculated from the IC50 values in accordance with the Cheng‐Prusoff equation.[28]

[3] = target: human MT1 receptors (Homo sapiens, UniProt P48039); assay: Radioligand binding, 2-[125I]iodomelatonin competition at MT1; conditions: cloned human MT1 in CHO cells; from IC50 by Cheng-Prusoff; mean±SD of three determinations; read-out: MT1 K i
Method: as §1, §2

[4] = Thermodynamic solubility, shake flask method; assay type: physicochemical; conditions: thermodynamic from solid, room temperature overnight, mean±SD, triplicate
Method: Thermodynamic solubility values were measured in two different buffers (pH 1.0; pH 7.4) by the shake flask method.[65] 1 mg of each compound was placed in 1 mL of appropriate buffer and shaken at room temperature overnight. The resulting suspension was centrifuged (10 min, 10000 g, 20 °C) and the supernatant analyzed by HPLC‐UV. Solubility values were interpolated from calibration curves prepared from concentrated DMSO stock solutions of each compound. Reported solubility values are the mean of three measurements±standard deviation.
It consisted of a LC‐10ADvp solvent delivery module, a 20 μL Rheodyne sample injector (Rheodyne LLC, Rohnert Park, CA, USA) and a SPD‐10Avp UV‐VIS detector. PeakSimple 2.83 software was employed for data acquisition and HPLC peak integration. […] Elution conditions were optimized for each compound at a flow rate of 1 mL min^−1 employing mobile phases consisting of water and acetonitrile at different percentages, while UV detection was set at λ = 254 nm.

[5] = Metabolic stability in human liver microsomes; assay type: in vitro ADME; conditions: for CLi Human LM (intrinsic clearance) / half-life at 5 μM: human liver microsomes 1 mg protein/mL, 5 μM compound, mean±SD; for CLi Human LM (intrinsic clearance): 37 °C; for half-life at 5 μM: NADPH-regenerating system, pH 7.4, 37 °C, read-out: t 1/2 Human LM
Method: (§3) Each compound (final concentration: 5 μM) was incubated in the presence of rat or human liver microsomes (final concentration: 1 mg protein/mL) and of a NADPH‐regenerating system (final concentrations: 2 mM NADP^+, 10 mM glucose‐6‐phosphate, 0.4 U mL^−1 glucose‐6‐phosphate dehydrogenase, 5 mM MgCl2) in a 10 mM Phosphate Buffered Saline (PBS) solution, pH 7.4, at 37 °C. Compound was added after a 10 min pre‐incubation at 37 °C and. at stated time points, depending on compound kinetics, sample aliquots were withdrawn, metabolic reaction was quenched by acetonitrile addition (1 : 2), and after a centrifugation step (9000 g, 10 min, 4 °C) the supernatant was analyzed by HPLC‐UV‐VIS.
(§4) Apparent half‐lives (t1/2 in min) for the metabolic clearance of compounds were calculated from the pseudo first‐order rate constants (k) obtained by linear regression of the log chromatographic peak area versus time plots and are reported as means of three experiments±standard deviation. Intrinsic clearance (CLi) values of the compounds were calculated using the following equation: CLi (μL×min^−1×mg protein^−1)=k×V where V (μL×mg protein^−1)=incubation volume/mg protein added.
(§5) Pooled rat and human liver microsomes (20 mg/mL) were supplied by BD Biosciences (BD Biosciences, Woburn, MA, USA). Acetonitrile and methanol were HPLC grade and were supplied by Sigma‐Aldrich (Sigma‐Aldrich srl, Milan, Italy). Water was freshly bidistilled before use. All other reagents were purchased in the highest purity available.
(§6) PeakSimple 2.83 software was employed for data acquisition and HPLC peak integration. HPLC columns were a RP‐C18 Supelco Discovery (Supelco, Bellefonte, PA, USA), 5 μm, 150×4.6 mm i.d. for all compounds except 13, and a Phenomenex Gemini, 5 μm, 150×4.6 mm i.d. for compound 13 (Phenomenex). Elution conditions were optimized for each compound at a flow rate of 1 mL min^−1 employing mobile phases consisting of water and acetonitrile at different percentages, while UV detection was set at λ = 254 nm. For compound 13, the mobile phase consisted of a 10 mM ammonium acetate buffer pH 7.0 and methanol and the UV detection was set at λ = 281 nm.

[6] = Metabolic stability in rat liver microsomes; assay type: in vitro ADME; conditions: for CLi Rat LM (intrinsic clearance) / half-life at 5 μM: rat liver microsomes 1 mg protein/mL, 5 μM compound, mean±SD; for CLi Rat LM (intrinsic clearance): 37 °C; for half-life at 5 μM: NADPH-regenerating system, pH 7.4, 37 °C, read-out: t 1/2 Rat LM
Method: as §3, §4, §5, §6

[7] = buffer pH 1.0, simulated gastric fluid, pH 1.0 buffer, read-out: Solubility pH 1.0
[8] = buffer pH 7.4, aqueous buffer, pH 7.4 buffer, read-out: Solubility pH 7.4

Chain of human MT1 receptors (P48039 whole entry): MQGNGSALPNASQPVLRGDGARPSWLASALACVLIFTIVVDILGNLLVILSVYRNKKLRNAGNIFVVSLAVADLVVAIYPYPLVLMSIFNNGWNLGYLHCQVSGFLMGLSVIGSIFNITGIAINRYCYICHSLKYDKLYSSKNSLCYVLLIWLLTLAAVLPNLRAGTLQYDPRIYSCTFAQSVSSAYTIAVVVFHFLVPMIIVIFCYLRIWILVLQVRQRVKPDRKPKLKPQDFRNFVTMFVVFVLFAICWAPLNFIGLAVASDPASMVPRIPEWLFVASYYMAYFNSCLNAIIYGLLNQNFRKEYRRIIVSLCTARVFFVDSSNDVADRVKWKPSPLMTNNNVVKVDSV

| SMILES | logD [1] | Ki [2] [nM] | Ki [3] [nM] | solubility [4, 7] [µg/mL] | solubility [4, 8] [µg/mL] | CLi Human LM (intrinsic clearance) [5] [μL min^−1 mg prot^−1] | half-life at 5 μM [5] [min] | CLi Rat LM (intrinsic clearance) [6] [μL min^−1 mg prot^−1] | half-life at 5 μM [6] [min] | increase of human microsomal stability compared to UCM765 ([5]; human liver microsomes, versus UCM765) | increase of rat microsomal stability compared to UCM765 ([6]; rat liver microsomes, versus UCM765) |
| --- | --- | --- | --- | --- | --- | --- | --- | --- | --- | --- | --- |
| COc1cccc(N(CCNC(C)=O)c2ccccc2)c1 [Compound 2, N‐{2‐[(3‐methoxyphenyl)phenylamino]ethyl}acetamide, reference compound] | 2.93 ± 0.01 | 0.29 ± 0.1 | 1.6 ± 0.14 | 125 ± 5 (≈ 440 µM) | 104 ± 5 (≈ 366 µM) | 17±1 | 40.8 ± 1.1 | 408±85 | 1.7 ± 0.4 |  |  |
| CC(=O)NCCN(c1ccc(F)cc1)c1cccc(Br)c1 [Compound 3, N‐{2‐[(3‐bromophenyl)‐(4‐fluorophenyl)amino]ethyl}acetamide, reference compound] | 3.84 ± 0.05 | 1.4 ± 0.08 | > 100 | 6.9 ± 0.1 (≈ 19.6 µM) | 5.1 ± 0.2 (≈ 14.5 µM) | 9.7±0.5 | 71.2 ± 3.4 | 38.1±6.0 | 18.2 ± 2.8 |  |  |
| COc1cccc(N(CCNC(N)=O)c2ccccc2)c1 [Compound 6 a, 1‐{2‐[(3‐Methoxyphenyl)phenylamino]ethyl}urea] | 2.65 ± 0.02 | 10 ± 0.13 | > 100 | 364 ± 3.7 (≈ 1280 µM) | 311.4 ± 2.6 (≈ 1090 µM) | 9.1±1.5 | 77.5 ± 13.4 | 44.2±1.0 | 15.7 ± 0.4 |  |  |
| CCNC(=O)NCCN(c1ccccc1)c1cccc(OC)c1 [Compound 6 b, 1‐Ethyl‐3‐{2‐[(3‐methoxyphenyl)phenylamino]ethyl}urea] | 3.3 ± 0.02 | 0.65 ± 0.03 | 20 ± 0.45 | 14.9 ± 0.6 (≈ 47.5 µM) | 10.2 ± 1.7 (≈ 32.5 µM) | 45.1±3.0 | 15.4 ± 1 | 98.1±6.8 | 7.1 ± 0.5 |  |  |
| COc1cccc(N(CCNC(C)=O)CCc2ccccc2)c1 [Compound 12, N ‐{2‐[(3‐Methoxyphenyl)(phenethyl)amino]ethyl}acetamide] | 3.44 ± 0.02 | 2.1 ± 0.15 | > 100 | > 1000 | 110 ± 6.9 (≈ 351 µM) | 96.7±6.3 | 7.2 ± 0.5 | 247.3±34.2 | 2.9 ± 0.5 |  |  |
| COc1cccc(N(CCNC(C)=O)c2ccncc2)c1 [Compound 13, N ‐{2‐[(3‐Methoxyphenyl)(pyridine‐4‐yl)amino]ethyl}acetamide] | 0.41 ± 0.01 | > 100 | > 100 | > 1000 | 1020 ± 93.7 (≈ 3570 µM) |  |  |  |  |  |  |
| COc1cccc(N(CCNC(C)=O)c2cccc(O)c2)c1 [Compound 15, N ‐{2‐[(3‐Hydroxyphenyl)(3‐methoxyphenyl)amino]ethyl} acetamide] | 2.42 ± 0.02 | 1.4 ± 0.15 | 53 ± 1.6 | 95.9 ± 4.2 (≈ 319 µM) | 119 ± 2.8 (≈ 395 µM) | 10.5±0.4 | 66.2 ± 2.8 | 217.3±44.6 | 3.3 ± 0.6 | approximately 1.5 fold | approximately 1.5 fold |
| COc1ccc(-c2ccccc2)c(N(C)CCNC(C)=O)c1 [Compound 18, N ‐{2‐[(4‐Methoxy‐[1,1’‐biphenyl]‐2‐yl)(methylamino)]ethyl}acetamide] | 3.11 ± 0.02 | 1.7 ± 0.13 | 32 ± 0.8 | > 1000 | 340 ± 9.7 (≈ 1140 µM) | 61.9±3.8 | 11.2 ± 0.7 | 468.9±12.9 | 1.5 ± 0.1 |  |  |
